The subject of test [1] is CCI rats. Nature of the test: Thermal stimulation paw withdrawal latency (PWL) in CCI rats. Particulars: for PWL: hot plate 50.5° C., cut-off 14s, mean±SEM. The test is classed as in vivo, SD rats. Here is the method: (§1) SD rats, body weight 180 g-220 g, half of them being male and the other half being female, provided by the Department of Laboratory Animals, Peking University. The rats were raised in a standard environment with temperature of 22±0.5° C. and relative humidity of 55±5%, 12 h/12 h light-dark cycle, and fed with standard feed.
(§2) Rat was anesthetized with pentobarbital sodium (60 mg/kg, i.p.), the right hind limb was surgically shaved, fixed in the prone position, a longitudinal incision was made along the middle of the right hind limb of the rat, the muscle was bluntly separated, the sciatic nerve was exposed, and the sciatic nerve bifurcate proximal end was loosely ligated with 4-0 silk suture for 4 times, with an interval of about 1 mm each time, in which the degree of tightness was suitable when it was observed that the right hind leg was slightly shaken. After ligation, the muscle and skin were sutured in sequence. For the sham-operated group, the sciatic nerve was only exposed, but not ligated. The success of modeling was determined by observing whether the hind limb of the rat's operation side was closed, slightly valgus and often vacated, and by measuring the mechanical stimulation paw withdrawal threshold and the thermal stimulation paw withdrawal latency of the rat.
(§3) Before surgery, the mechanical stimulation paw withdrawal thresholds and the thermal stimulation paw withdrawal latencies in the rats were determined, and the rats were grouped as: sham operation group (sham), vehicle group (double-distilled water, i.g.), DXL-A-22 group (2 mg/kg, i.g.), DXL-A-24 group (1 mg/kg, i.g.), and Gabapentin group (100 mg/kg, i.g.). All compounds and drugs were dissolved in double-distilled water, and given by intragastric administration at 1 mL/100 g. From the first day after surgery, the administration was carried out every day, and the mechanical stimulation paw withdrawal threshold and the thermal stimulation paw withdrawal latency were measured 2 hours after administration.
The thermal stimulation paw withdrawal latency (PWL) was measured by a hot plate method. The measurement was carried out on the days 5, 7 and 14 after operation. The temperature of the hot plate was 50.5° C. Timing started when the rat was placed on the hot plate, and stopped when the shaking and foot licking responses of the rat appeared, and this time was the PWL of the rat. The hot plate cut-off time was 14s, and the percentage of analgesia (i.e., MPE %) was calculated according to formula (3):
MPE %=(PWL of test group−PWL of vehicle group)/(cut-off time−PWL of vehicle group)×100 (3)

Test [2] deals with CCI rats. Nature of the test: Mechanical stimulation paw withdrawal threshold (MWT) in CCI rats. The note with it: for inhibition rate (absolute %): PTE % vs vehicle; for MWT: mean±SEM; for inhibition rate (relative %): relative to sham minus vehicle. The test is classed as in vivo, SD rats. The procedure:
as §1, §2, §3
The mechanical stimulation paw withdrawal threshold (MWT) of rats was detected by von Frey electronic pain tester. The measurement was carried out on the days 5, 7 and 14 after operation. The rats were placed in a transparent plexiglass box (whose bottom was a wire mesh with a gap of 1 mm^2) to adapt to the environment for 30 min. After the rats had no exploration action, the von Frey electronic pain tester was used to stimulate the middle position of paw at the operation side of the rat, and the maximum force caused by rat paw withdrawal response (i.e., MWT) was recorded. The inhibition rate of the compound was calculated according to the following formula:
Absolute increase rate (i.e., PTE %): PTE %=(MWT of test group−MWT of vehicle group)/MWT of vehicle group×100 (1)
Relative increase rate: Inhibition rate %=(MWT of test group−MWT of vehicle group)/(MWT of Sham operation group−MWT of vehicle group)×100 (2)

For a further test, the system named is ICR mice. Nature of the test: Formalin experiment. Type of test: in vivo. Particulars: Mus musculus, po, 2 h; 1 mg/kg intragastric, 2.5% formalin two hours after administration, phase II 10-60 minutes; read-out: Phase II pain inhibition rate (%). The procedure:
ICR mice, 18-22 g, half of them being male and the other half being female, provided by the Department of Laboratory Animals, Peking University (License No.: SCXK (Beijing) 2016-0010).
ICR mice, half of them being male and the other half being female, were randomly grouped, 8 mice per group. Vehicle control group (double-distilled water) and groups for samples to be tested were set, in which the compounds and doses thereof were shown in Table 3. All drugs were dissolved in double-distilled water before administration, and given by intragastric administration at predetermined doses. Two hours after administration, the mice were injected with 20 ul of 2.5% formalin solution in the right hind foot, and the time (s) of licking or biting foot was recorded as an index of pain response, in which 0-5 minutes was phase I, 10-60 minutes was phase II, and the total observation time was 60 minutes. The phase II pain inhibition rate of compound in mice was calculated according to the following formula:
Inhibition rate %=(time of licking or biting foot in vehicle control group−time of licking or biting foot in test group)/time of licking or biting foot in vehicle control group×100

Setting [3] is: 2 mg/kg i.g. daily, Day 5 after operation, section 3.2.
Setting [4] is: 2 mg/kg i.g. daily, Day 7 after operation, section 3.2.
[5] abbreviates: 2 mg/kg i.g. daily, Day 14 after operation, section 3.2.
Setting [6] is: 2 mg/kg i.g. daily, Day 5 after operation, section 3.1.
The mark [7] stands for this setting: 2 mg/kg i.g. daily, Day 7 after operation, section 3.1.
Where [8] appears, read: 2 mg/kg i.g. daily, Day 14 after operation, section 3.1.
The mark [9] stands for this setting: 1 mg/kg i.g. daily, Day 5 after operation, section 3.4.
Where [10] appears, read: 1 mg/kg i.g. daily, Day 7 after operation, section 3.4.
[11] abbreviates: 1 mg/kg i.g. daily, Day 14 after operation, section 3.4.
Where [12] appears, read: 1 mg/kg i.g. daily, Day 5 after operation, section 3.3.
Setting [13] is: 1 mg/kg i.g. daily, Day 7 after operation, section 3.3.
Where [14] appears, read: 1 mg/kg i.g. daily, Day 14 after operation, section 3.3.

SMILES strings stand for the structures.

In the case of `Br.Brc1ccc(N2CC[N+]3(CCCC3)CC2)cc1` [DXL-A-22, 8-(4-bromophenyl)-5,8-diazaspiro[4.5]decan-5-ium bromide], the figures for the PWL with CCI rats [1] (setting [3]), with CCI rats [1] (setting [4]) and in the test with CCI rats [1] (setting [5]) were 10.84 ± 0.32**/, 11.28 ± 0.64**/ and 11.19 ± 0.52**/, respectively. Also, the “MPE(%)” value in the test with CCI rats [1] (setting [3]) is on record as 51.61%; in the test with CCI rats [1] (setting [4]) it was 58.91%; in the test on CCI rats [1] (setting [5]) it was 55.61%. Besides, the “inhibition rate (absolute %)” value in the test on CCI rats [2] (setting [6]) was found to be 76.88%; in the test with CCI rats [2] (setting [7]), 116.83%; in the test on CCI rats [2] (setting [8]) it was 108.81%. Also, the figures for the MWT in the test on CCI rats [2] (setting [6]), in the test on CCI rats [2] (setting [7]) and in the test on CCI rats [2] (setting [8]) were 19.28 ± 1.44**/, 22.16 ± 0.79**/ and 22.05 ± 0.74**/, respectively. The “inhibition rate (relative %)” value in the test on CCI rats [2] (setting [6]) is 31.01%; in the test on CCI rats [2] (setting [7]), 43.18%; in the test with CCI rats [2] (setting [8]), 41.26%. Further, the inhibition in vivo at 1 mg/kg with ICR mice amounted to 52.6%.
As to `FC(F)(F)c1ccc(N2CC[N+]3(CCCC3)CC2)cc1.[Br-]` [DXL-A-24, 8-(4-(trifluoromethyl)phenyl)-5,8-diazaspiro[4.5]decan-5-ium bromide], the PWL in the test on CCI rats [1] (setting [9]) is 11.29 ± 0.57**/; with CCI rats [1] (setting [10]), 12.35 ± 0.55**/; in the test with CCI rats [1] (setting [11]), 13.26 ± 0.43**/. The figures for the “MPE(%)” value in the test with CCI rats [1] (setting [9]), in the test with CCI rats [1] (setting [10]) and in the test with CCI rats [1] (setting [11]) were 52.62%, 72.36% and 88.79%, respectively. For the same compound, the “inhibition rate (absolute %)” value with CCI rats [2] (setting [12]) came out at 75.78%; in the test on CCI rats [2] (setting [13]), 117.94%; in the test with CCI rats [2] (setting [14]), 75.09%. The MWT with CCI rats [2] (setting [12]) is on record as 20.32 ± 1.09**/; in the test on CCI rats [2] (setting [13]), 22.84 ± 1.64**/; in the test with CCI rats [2] (setting [14]), 20.31 ± 1.57**/. For the same compound, the “inhibition rate (relative %)” value came out at 35.35% in the test on CCI rats [2] (setting [12]), 47.89% with CCI rats [2] (setting [13]) and 33.24% in the test with CCI rats [2] (setting [14]). For the same compound, in the test on ICR mice, the inhibition in vivo at 1 mg/kg was determined as 50.2%.
